# Measured values reported in patent US4921797A, “C-terminal alpha-amidating enzyme and process for production and use thereof” (Hisayuki Matsuo, priority 1986, dated 1990).
# Square brackets hold non-standard residues; d marks the D form. Ends that are not written are not given here.
# Assays:
# Type in all cases: biochemical
# [1] = biological target: T1, C-terminal α-amidating enzyme AE-I (Xenopus laevis, UniProt P08478); experiment: Effect of substances on enzyme activity of AE-I
# T1 construct: C-terminal α-amidating enzymes of the present invention can be extracted from the skin of Xenopus laevis; from tissue; host or cells: Xenopus laevis skin
# T1 sequence (P08478 37-400 isoform P08478-2 limits assumed): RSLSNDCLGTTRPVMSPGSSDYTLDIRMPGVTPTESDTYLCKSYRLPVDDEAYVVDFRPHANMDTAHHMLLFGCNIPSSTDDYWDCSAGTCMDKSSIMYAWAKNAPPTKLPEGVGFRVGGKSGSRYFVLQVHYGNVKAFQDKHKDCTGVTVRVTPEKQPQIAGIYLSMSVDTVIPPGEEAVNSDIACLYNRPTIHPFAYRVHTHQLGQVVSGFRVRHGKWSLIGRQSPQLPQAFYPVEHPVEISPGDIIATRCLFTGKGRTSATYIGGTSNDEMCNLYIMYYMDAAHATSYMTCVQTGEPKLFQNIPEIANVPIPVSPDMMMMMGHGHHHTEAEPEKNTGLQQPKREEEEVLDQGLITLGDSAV
# Method: C-terminal α-amidating enzyme of the present invention is assayed using synthetic peptide [^125 I]-Ac-Tyr-Phe-Gly as a substitute according to the following procedure. [^125 I]-Ac-Tyr-Phe-Gly (1 pmole, 70,000-150,000 cpm) was incubated with an enzyme preparation, in a final volume of 250 μl containing 0.2M Tris-HCl buffer (pH 7.0), 2 μM CuSo4, 0.25 mM ascorbic acid, 25 μg catalase (Boehringer), 0.1% Lubrol (PX type, Nakarai Chemicals). The reaction mixture was kept at 37° C. for 1 to 4 hours. Then 0.75 ml of 1M Tris-HCl buffer (pH 7.0) and 2 ml of the organic phase of an ethyl acetate/water mixture was added. Two phases were mixed vigorously on a Vortex mixer. After centrifugation at 3000 rpm for 3 min, the organic phase thus separated was transferred to another test tube. The radioactivity in organic and aqueous layers was each measured by a gamma scintillation counter. […] The yield of conversion was calculated from the ratio of the radioactivity in ethyl acetate phase to the total radioactivity. In this assay, one unit is defined as an amount of enzyme which converts 50% of added substrate [^125 I]-Ac-Try-Phe-Gly to [^125 I]-Ac-Tyr-Phe-NH2.
# [2] = biological target: T1, C-terminal α-amidating enzyme AE-I; experiment: Conversion of substrate peptides to C-terminal α-amidated products by AE-I (reverse-phase HPLC); conditions: same procedure as Example 3; rates Tyr-Phe-Gly>Ac-Tyr-Phe-Gly>D-Tyr-Val-Gly>D-Tyr-Gly-Gly
# Method: The 0.1 μg of the enzyme preparation AE-I prepared in Example 1 was incubated with 4 nmoles of Tyr-Gly-Gly-Phe-Met-Arg-Arg-Val-Gly as a substrate in 250 μl of a 0.2M Tris-HCl buffer (pH 7.0) containing 2 μM CuSO4, 0.25 mM ascorbic acid, 25 μg catalase, and 0.1% Lubrol, at 37° C. for 24 hours. After the reaction was terminated by the addition of 250 μl of 1% trifluoroacetic acid, the reaction mixture was applied to a TSK ODS-120A column (0.4×25 cm; Toyosoda), and elution was carried out using a linear gradient of 12 to 60% CH3 CN in 0.1% trifluoroacetic acid at a flow rate of 1.5 ml/min. The elute was analyzed for absorbance at 210 nm. FIG. 7A represents an elution pattern for a sample of the reaction mixture taken at 0 time, i.e., before the reaction, and FIG. 7B represents an elution pattern for a sample of the reaction mixture taken 24 hours after the reaction has started. […] In FIG. 7, arrows b and a represent positions at which the peaks of authentic substrate and authentic adrenorphin Tyr-Gly-Gly-Phe-Met-Arg-Arg-Val-NH2 respectively appear under the same condition. Adrenorphin corresponds to a peptide wherein C-terminal glycine has been converted to α-amide. Since the positions 1 and 2 match the positions a and b respectively, it is reasonable to assume that the reaction product corresponding to peak 1 is adrenorphin. This means that the enzyme of the present invention amidated the substrate at its C-terminal. To confirm this conclusion, the fraction 1 in FIG. 7 was hydrolyzed in 6M HCl at 110° C. for 24 hours, and the amino acid composition of the hydrolyzate was analyzed using an amino acid analyzer. Moreover, the presence of the C-terminal amide group in the fraction 1 was analyzed by thermolysin digestion followed by thin layer chromatography. All of the results confirmed that the reaction product is adrenorphin.
# The same procedure as described in Example 3 was repeated except that, in place of Tyr-Gly-Gly-Phe-Met-Arg-Arg-Val-Gly(FIG. 8Δ), following substrates were used: […]
# [3] = biological target: T1, C-terminal α-amidating enzyme AE-I; experiment: Kinetic constants of AE-I from Lineweaver-Burk plots; conditions: standard conditions
# Method: C-terminal α-amidating enzyme of the present invention is assayed using synthetic peptide [^125 I]-Ac-Tyr-Phe-Gly as a substitute according to the following procedure. [^125 I]-Ac-Tyr-Phe-Gly (1 pmole, 70,000-150,000 cpm) was incubated with an enzyme preparation, in a final volume of 250 μl containing 0.2M Tris-HCl buffer (pH 7.0), 2 μM CuSo4, 0.25 mM ascorbic acid, 25 μg catalase (Boehringer), 0.1% Lubrol (PX type, Nakarai Chemicals). The reaction mixture was kept at 37° C. for 1 to 4 hours. Then 0.75 ml of 1M Tris-HCl buffer (pH 7.0) and 2 ml of the organic phase of an ethyl acetate/water mixture was added. Two phases were mixed vigorously on a Vortex mixer. After centrifugation at 3000 rpm for 3 min, the organic phase thus separated was transferred to another test tube. The radioactivity in organic and aqueous layers was each measured by a gamma scintillation counter. Under the conditions described above, over 98% of radioactivity of the authentic [^125 I]-Ac-Tyr-Phe-Gly was retained in an aqueous phase and over 98% of radioactivity of the authentic [^125 I]-Ac-Tyr-Phe-NH2 was transferred to an organic phase. The yield of conversion was calculated from the ratio of the radioactivity in ethyl acetate phase to the total radioactivity. In this assay, one unit is defined as an amount of enzyme which converts 50% of added substrate [^125 I]-Ac-Try-Phe-Gly to [^125 I]-Ac-Tyr-Phe-NH2.
compound,measurement,setting,value
[Cu+2] [Cu^++],Requirement of Cu++ cation for enzyme activity,[1],essential
CCN1C(=O)C=CC1=O [N-ethylmaleimide],Effect on enzyme activity inhibited by the thiol compound,[1]; 5 mM N-ethylmaleimide in presence of 1 mM dithiothreitol,restores the enzyme activity
[dY]-Val-Gly,Conversion of substrate by AE-I (FIG. 8),[2],converted to the corresponding des-Gly peptide α-amides
Tyr-Phe-Gly,Conversion of substrate by AE-I (FIG. 8),[2],converted to the corresponding des-Gly peptide α-amides
[dY]-Gly-Gly,Conversion of substrate by AE-I (FIG. 8),[2],converted to the corresponding des-Gly peptide α-amides
Ac-Tyr-Phe-Gly,Conversion of substrate by AE-I (FIG. 8),[2],converted to the corresponding des-Gly peptide α-amides
same,Km,[3],0.35 µM
same,Vmax,[3],1.9 nmol/µg/h
Tyr-Gly-Gly-Phe-Met-Arg-Arg-Val [desamido-adrenorphin],Conversion of substrate by AE-I (FIG. 8),[2],not affected by the enzyme
YGGFMRRVGRPE [BAM-12P],Conversion of substrate by AE-I (FIG. 8),[2],not affected by the enzyme
O=C(O)CN(CCN(CC(=O)O)CC(=O)O)CC(=O)O [EDTA],Effect on enzyme activity,[1]; 0.1 mM EDTA,inhibited
O[C@H](CS)[C@H](O)CS (racemic) [dithiothreitol],Effect on enzyme activity,[1]; 1 mM dithiothreitol,inhibited
O=S(=O)([O-])[O-].[Cu+2] [CuSO4],Effect on enzyme activity inhibited by the thiol compound,[1]; additional 1.2 mM CuSO4 in presence of 1 mM dithiothreitol,restores the enzyme activity
same,Effect on enzyme activity inhibited by EDTA,[1]; additional more than 0.12 mM CuSO4 in presence of 0.1 mM EDTA,restores the enzyme activity
